We go through nine molecules from patent US20260335514A1, “Drug-Coated Medical Devices & Methods of Making” (Bard Peripheral Vascular, Inc., priority 2022, published 2026).

The structures appear in SMILES notation. Values after ≈ are worked out from the molar mass of the structure shown. Values joined by “and” are separate entries in the source; they are usually repeats but may differ in a detail not shown here. Equal entries are not always repeated. Where two headings read alike, the source gives them in different places.

The subject of data set [1] is femoral arteries of porcine model. As to the kind of experiment: morphometry of stented arteries (Example 4). Format: in vivo. Conditions: for amount of restenosis observed (in words): 60 and 90 days. The procedure: (§1) In Example 4, formulations for stent drug coatings were prepared as subsequently described, followed by obtaining 7, 28, 60, and 90 days histological data from in vivo studies when implanted in femoral arteries of porcine model.
(§2) Five total formulations were used: a control of PVDF only, prepared at a concentration of 5 mg/mL in a solution of 90% acetone and 10% cyclohexane; a colchicine coating, prepared in a 5:1 PVDF: colchicine ratio with 5 mg/mL provided to 90% acetone and 10% DMF; a roflumilast coating at a 5:1 PVDF:roflumilast ratio, with […] provided to a 42.5% EtOAc, 50% acetone, and 7.5% DMF solution; a tadalafil coating prepared at 3:1 PVDF:tadalafil, provided at 5 mg/mL in a solution of 30% EtOAc, 60% acetone, and 10% DMF; and a sunitinib coating provided at 3:1 PVDF:sunitinib malate, prepared at 5 mg/mL in a solution of 60% MeOAc, 30% acetone, and 10% DMF. Coatings were provided to 5×40 mm and 6×40 mm stents. Loading concentrations were assessed prior to and after ETO (ethylene oxide) sterilization and no discernable change was noted by the process.
(§3) Histological studies were then performed at 60 and 90 days.

Data set [2] has the same test system. Put plainly: histology of stented arteries (Example 4). The format is in vivo. The procedure: as §1, §2, §3
Data set [3] shares this test system. Put plainly: in vivo pharmacokinetics of drug coated stents (Example 4). Conditions: 7 and 28 days after implantation; preliminary; FIG. 10. The procedure:
as §1, §2
FIG. 10 sets forth some preliminary pharmacokinetic data obtained from the prepared stents at 7 and 28 days after implantation within the pigs.

Another data set in a line: solubility in PBS. The format is physicochemical. The procedure:
Drug coatings with crystalline forms of tyrosine kinase inhibitors were also examined. Sunitinib was again chosen as the candidate drug and crystal pamoate salts were prepared by recrystaliization in ethanol or ethanol and DMF for a hemi-pamoate.

The conditions of data set [4]: octanol-water; cited from earlier work.
The conditions of data set [5]: cited from earlier work.

`COc1cc2c(c(OC)c1OC)-c1ccc(OC)c(=O)cc1[C@@H](NC(C)=O)CC2` [Colchicine, colchicine]: in data set [1] (pig, in vivo), the “% Stenosis” value is 67.45% and 81.83%; the “Medial Area” value is listed as 1.22; the “percentage of stenosis (in words)” value is given as “seemingly accelerated amount of stenosis”. In data set [2] (pig, in vivo), the “Inflammation Score” value is listed as 3.06; the Restenosis % area is 67.45% and 81.83%.

For `O=C(Nc1c(Cl)cncc1Cl)c1ccc(OC(F)F)c(OCC2CC2)c1` [Roflumilast, roflumilast], the “pharmacokinetic data versus target (in words)” value in data set [3] is recorded as “expected target ranges”. In data set [2] (60 days), the Fibrin % was determined as 16.65%, the Giant cell % came to 0.49%, the “Inflammation Score” value worked out at 0.69 and the PGs/Collagen score is 0.75. Also, in data set [2] (60 days), the Restenosis % area was 40.45%. Further, in data set [2] (90 days), the Fibrin % stood at 1.0%, the Giant cell % amounted to 0.0%, the “Inflammation Score” value was 0.56 and the PGs/Collagen score came to 1.44. Also, the Restenosis % area in data set [2] (90 days) is given as 30.69%.

`CCN(CC)CCNC(=O)c1c(C)[nH]c(/C=C2\C(=O)Nc3ccc(F)cc32)c1C` [Sunitinib as a free base, sunitinib]: in the data set “solubility in PBS”, the “solubility in PBS” value came to 26.4 µM (≈ 10.5 µg/mL).

In the case of `CCN(CC)CCNC(=O)c1c(C)[nH]c(/C=C2\C(=O)Nc3ccc(F)cc32)c1C` [Sunitinib, sunitinib], the “amount of restenosis observed (in words)” value in data set [1] is on record as “improvements in the amount of restenosis observed”. Besides, the “percentage of stenosis (in words)” value in data set [1] (60 days) is reported as “similar”. In data set [2] (60 days), the Fibrin % is listed as 33.17%, the Giant cell % came out at 4.14%, the “Inflammation Score” value is listed as 1.19 and the PGs/Collagen score stood at 1.06. Also, in data set [2] (60 days), the Restenosis % area amounted to 33.76%. Further, in data set [2] (90 days), the Fibrin % is listed as 1.0%, the Giant cell % is reported as 2.03%, the “Inflammation Score” value is on record as 0.25 and the PGs/Collagen score is on record as 1.31. For the same molecule, the Restenosis % area in data set [2] (90 days) is reported as 30.77%.

On to `CN1CC(=O)N2[C@H](c3ccc4c(c3)OCO4)c3[nH]c4ccccc4c3C[C@@H]2C1=O` [Tadalafil, tadalafil], for which the “amount of restenosis observed (in words)” value in data set [1] was “improvements in the amount of restenosis observed”. In data set [1] (60 days), the “percentage of stenosis (in words)” value is given as “similar”. Also, the “pharmacokinetic data versus target (in words)” value in data set [3] is “lower than expected”. Besides, in data set [2] (60 days), the Fibrin % was determined as 26.69%, the Giant cell % amounted to 7.26%, the “Inflammation Score” value came out at 1.19 and the PGs/Collagen score is 1.44. Besides, in data set [2] (60 days), the Restenosis % area is recorded as 35.38%. In data set [2] (90 days), the Fibrin % turned out to be 1.31%, the Giant cell % amounted to 30.12%, the “Inflammation Score” value was found to be 1.94 and the PGs/Collagen score is 1.38. In addition, the Restenosis % area in data set [2] (90 days) was found to be 27.4%.

For the molecule `CCN(CC)CCNC(=O)c1c(C)[nH]c(/C=C2\C(=O)Nc3ccc(F)cc32)c1C` [hemi-pamoate], the “solubility in PBS” value in “solubility in PBS” came out at 6.02 µM (≈ 2.4 µg/mL).

One may read the log P as the decadic logarithm of the partition coefficient of the neutral form, usually between octanol and water. As for `CC(=O)O[C@H]1C(=O)[C@@]2(C)[C@H]([C@H](OC(=O)c3ccccc3)[C@]3(O)C[C@H](OC(=O)[C@H](O)[C@@H](NC(=O)c4ccccc4)c4ccccc4)C(C)=C1C3(C)C)[C@]1(OC(C)=O)CO[C@@H]1C[C@@H]2O` [paclitaxel], the “log P” value in data set [4] was 7.4.

For the molecule `CCN(CC)CCNC(=O)c1c(C)[nH]c(/C=C2\C(=O)Nc3ccc(F)cc32)c1C` [pamoate crystal], the “solubility in PBS” value in the data set “solubility in PBS” is 9.6 µM.

On to `CCN(CC)CCNC(=O)c1c(C)[nH]c(/C=C2\C(=O)Nc3ccc(F)cc32)c1C` [sunitinib malate], for which, in data set [5], the water solubility entry is listed as “about 25 mg/mL”. Moreover, in the data set “solubility in PBS” (listed as malate salt), the “solubility in PBS” value turned out to be 1231 µM.
